Measured values reported in patent publication US20210251237A1, “PLATFORM FOR DEVELOPING SOIL-BORNE PLANT PATHOGEN INHIBITING MICROBIAL CONSORTIA” (priority 2018, published 2021).
Like-named read-outs stand apart in the source and are kept apart here. Marks after values point to notes of the source that are not given here.

Assays:
F. culmorum = test: Pathogen suppressive activity plate assay (zone of inhibition); type: cell-based; conditions: Table 1; pathogen isolate P61
potato scab = test: Potato field trials: percent scab control; type: in vivo; parameters: concentration or dose not given beside the values
Phytophthora medicaginis = test: Pathogen suppressive activity plate assay (zone of inhibition); type: cell-based; conditions: for zone of inhibition: Table 1; for mean inhibitory zone size: Table 4
Fusarium oxysporum = test: as above; type: cell-based; conditions: for zone of inhibition: Table 1; for mean inhibitory zone size: Table 4
[1] = system: Pythium ultimum var. sporangiferum; test: as above; type: cell-based; conditions: for zone of inhibition: Table 1, pathogen isolate P58; for mean inhibitory zone size: Table 4, pathogen target isolate P58
[2] = system: clinical antimicrobials (antibiotic discs); test: Antibiotic disc resistance/susceptibility assay of microbial isolates; type: cell-based
Phytophthora sojae = test: Pathogen suppressive activity plate assay (zone of inhibition); type: cell-based; conditions: for zone of inhibition: Table 1, pathogen isolate P52; for mean inhibitory zone size: Table 4, pathogen target isolate P52
[3] = system: GS1, PS1 and PS3 (overlaid isolates); test: Mutual inhibition activity among GS1, PS1 and PS3; type: cell-based; conditions: for inhibition zone size: mild inhibition
Description: Each of the microbes—GS1, PS1 and PS3—was grown in the presence of every other isolate (i.e., GS1 with PS1; GS1 with PS3; and PS1 with PS3). Briefly, isolates GS1, PS1 and PS3 were dotted onto the center of individual petri dishes and allowed to grow for 3 days. Dotted isolates were then killed by placing petri dishes over a chloroform-filled watch glass in a safety cabinet for one hour. Subsequently, overlays of the other two isolates spread across the entire petri dish surface. In this way, each isolate was tested as a potential inhibitor (dotted isolates) in combination with every isolate as a target (overlaid isolates). The growth of the microbial isolates was evaluated for the presence or absence of zones of inhibition at the interphase between the bacterial isolates. […] Results from this analysis show the potential for isolates to coexist without inhibiting one another.

Fusarium graminearum = type: cell-based; parameters: key to pathogen suppression (symbol): + refers to instances where there is some evidence for inhibition immediately over the surface of the dotted strain, but no clear inhibition zone beyond the dotted colony's edge; conditions: for zone of inhibition: Table 1; for pathogen suppression (symbol) / mean inhibitory zone size: Table 4
Rhizoctonia solani = test: Pathogen suppressive activity plate assay (zone of inhibition); type: cell-based; conditions: for zone of inhibition: Table 1, pathogen isolate P6; for mean inhibitory zone size: Table 4
Fusarium virguliforme = test: as above; type: cell-based; conditions: Table 4
Sclerotinia sclerotiorum = test: as above; type: cell-based; conditions: for zone of inhibition: Table 1, pathogen isolate P19; for mean inhibitory zone size: Table 4
[4] = system: GS1 and PS3 (inhibition zones on Bacillus lawns); test: Antimicrobial signaling/responsiveness among GS1, PS1, PS3; type: cell-based; conditions: increased inhibition zones around GS1 and PS3 vs single inoculant controls
[5] = system: random collection of Streptomyces from field soils; test: Enhancement of antibiotic production in field-soil Streptomyces; type: cell-based

## Brevibacillus laterosporus [PS3]
F. culmorum
  zone of inhibition: 5.48 mm
Potato scab; experiment BPP, disease on non-inoculated tubers 22.2
  Percent Control (reduction in scab severity vs non-inoculated plots): 27%
Potato scab; experiment BSP, disease on non-inoculated tubers 24.3
  Percent Control (reduction in scab severity vs non-inoculated plots): 40%
Potato scab; experiment BWP, disease on non-inoculated tubers 26.7
  Percent Control (reduction in scab severity vs non-inoculated plots): 30%
Potato scab; experiment RPP, disease on non-inoculated tubers 15.6
  Percent Control (reduction in scab severity vs non-inoculated plots): 23%
Potato scab; experiment RSCRG1, disease on non-inoculated tubers 28.1
  Percent Control (reduction in scab severity vs non-inoculated plots): 34%
Potato scab; experiment RSP, disease on non-inoculated tubers 8.8
  Percent Control (reduction in scab severity vs non-inoculated plots): 42%
Phytophthora medicaginis; pathogen isolate P43
  zone of inhibition: 12.55 mm
Phytophthora medicaginis; pathogen isolate P44
  zone of inhibition: 6.53 mm
Phytophthora medicaginis; pathogen target isolate P43
  mean inhibitory zone size: 5.6 mm
Phytophthora medicaginis; pathogen target isolate P44
  mean inhibitory zone size: 9.125 mm
Fusarium oxysporum; pathogen isolate P27
  zone of inhibition: 0 mm
Fusarium oxysporum; pathogen isolate P29
  zone of inhibition: 0 mm
Fusarium oxysporum; pathogen target isolate P25
  mean inhibitory zone size: 3.725 mm
Fusarium oxysporum; pathogen target isolate P26
  mean inhibitory zone size: 4.1 mm
Fusarium oxysporum; pathogen target isolate P28
  mean inhibitory zone size: 5.6 mm
Fusarium oxysporum; pathogen target isolate P29
  mean inhibitory zone size: 4.225 mm
[1]
  zone of inhibition: 3.73 mm
  mean inhibitory zone size: 6.6 mm
[2]; Amoxicillin Clavulanate
  Antibiotic resistance characteristics: MR (MR-moderately resistant (1-5 mm))
[2]; Chloramphenicol
  Antibiotic resistance characteristics: MS (MS-moderately susceptible (6-10 mm))
[2]; Erythromycin
  Antibiotic resistance characteristics: S (S-susceptible (>10 mm))
[2]; Kanamycin
  Antibiotic resistance characteristics: S (S-susceptible (>10 mm))
[2]; Novobiocin 5
  Antibiotic resistance characteristics: S (S-susceptible (>10 mm))
[2]; Novobiocin 30
  Antibiotic resistance characteristics: S (S-susceptible (>10 mm))
[2]; Rifampin
  Antibiotic resistance characteristics: MR (MR-moderately resistant (1-5 mm))
[2]; Streptomycin
  Antibiotic resistance characteristics: S (S-susceptible (>10 mm))
[2]; Tetracycline
  Antibiotic resistance characteristics: MR (MR-moderately resistant (1-5 mm))
[2]; Vancomycin 5
  Antibiotic resistance characteristics: MS (MS-moderately susceptible (6-10 mm))
[2]; Vancomycin 30
  Antibiotic resistance characteristics: S (S-susceptible (>10 mm))
Phytophthora sojae
  zone of inhibition: 0 mm
  mean inhibitory zone size: 10.3 mm
[3]
  inhibition of the other members of the combination: Neither isolate PS3 nor GS3 inhibit
Fusarium graminearum; pathogen isolate P31
  zone of inhibition: 10.35 mm
Fusarium graminearum; pathogen isolate P34
  zone of inhibition: 14.58 mm
Fusarium graminearum; pathogen target isolate P30
  pathogen suppression (symbol): +**
Fusarium graminearum; pathogen target isolate P31
  pathogen suppression (symbol): +
Fusarium graminearum; pathogen target isolate P32
  pathogen suppression (symbol): +
Fusarium graminearum; pathogen target isolate P33
  pathogen suppression (symbol): +
Fusarium graminearum; pathogen target isolate P34
  pathogen suppression (symbol): +
Fusarium graminearum; pathogen target isolate P35
  pathogen suppression (symbol): +
Rhizoctonia solani
  zone of inhibition: 12.25 mm
Rhizoctonia solani; pathogen target isolate P5
  mean inhibitory zone size: 3.25 mm
Rhizoctonia solani; pathogen target isolate P6
  mean inhibitory zone size: 1.7875 mm
Rhizoctonia solani; pathogen target isolate P12
  mean inhibitory zone size: 1.5 mm
Fusarium virguliforme; pathogen target isolate P20
  mean inhibitory zone size: 5.2 mm
Fusarium virguliforme; pathogen target isolate P21
  mean inhibitory zone size: 9.5 mm
Fusarium virguliforme; pathogen target isolate P22
  mean inhibitory zone size: 8.975 mm
Fusarium virguliforme; pathogen target isolate P23
  mean inhibitory zone size: 6.175 mm
Sclerotinia sclerotiorum
  zone of inhibition: 11.48 mm
Sclerotinia sclerotiorum; pathogen target isolate P16
  mean inhibitory zone size: 4.517 mm
Sclerotinia sclerotiorum; pathogen target isolate P17
  mean inhibitory zone size: 5.567 mm
Sclerotinia sclerotiorum; pathogen target isolate P18
  mean inhibitory zone size: 4.975 mm
Sclerotinia sclerotiorum; pathogen target isolate P19
  mean inhibitory zone size: 5.8 mm

## Streptomyces sp. 3211.1 [PS1]
[4]
  effect on antibiotic production by the two other isolates: enhance antibiotic production
F. culmorum
  zone of inhibition: 0 mm
[5]
  more effective than other isolates in enhancing antibiotic production: ~50%
  share of a random collection of Streptomyces whose antibiotic production is enhanced: 30%
Phytophthora medicaginis; pathogen isolate P43
  zone of inhibition: 0 mm
Phytophthora medicaginis; pathogen isolate P44
  zone of inhibition: 0 mm
Phytophthora medicaginis; pathogen target isolate P43
  mean inhibitory zone size: 0 mm
Phytophthora medicaginis; pathogen target isolate P44
  mean inhibitory zone size: 0 mm
Fusarium oxysporum; pathogen isolate P27
  zone of inhibition: 0 mm
Fusarium oxysporum; pathogen isolate P29
  zone of inhibition: 0 mm
Fusarium oxysporum; pathogen target isolate P25
  mean inhibitory zone size: 0 mm
Fusarium oxysporum; pathogen target isolate P26
  mean inhibitory zone size: 0 mm
Fusarium oxysporum; pathogen target isolate P28
  mean inhibitory zone size: 0 mm
Fusarium oxysporum; pathogen target isolate P29
  mean inhibitory zone size: 0 mm
[1]
  zone of inhibition: 0 mm
  mean inhibitory zone size: 0 mm
[2]; Amoxicillin Clavulanate
  Antibiotic resistance characteristics: MR (MR-moderately resistant (1-5 mm))
[2]; Chloramphenicol
  Antibiotic resistance characteristics: R (R-resistant (0 inhibition zone))
[2]; Erythromycin
  Antibiotic resistance characteristics: MR (MR-moderately resistant (1-5 mm))
[2]; Kanamycin
  Antibiotic resistance characteristics: S (S-susceptible (>10 mm))
[2]; Novobiocin 5
  Antibiotic resistance characteristics: MR (MR-moderately resistant (1-5 mm))
[2]; Novobiocin 30
  Antibiotic resistance characteristics: MS (MS-moderately susceptible (6-10 mm))
[2]; Penicillin
  Antibiotic resistance characteristics: R (R-resistant (0 inhibition zone))
[2]; Rifampin
  Antibiotic resistance characteristics: MR (MR-moderately resistant (1-5 mm))
[2]; Streptomycin
  Antibiotic resistance characteristics: MS (MS-moderately susceptible (6-10 mm))
[2]; Tetracycline
  Antibiotic resistance characteristics: MR (MR-moderately resistant (1-5 mm))
[2]; Vancomycin 5
  Antibiotic resistance characteristics: MS (MS-moderately susceptible (6-10 mm))
[2]; Vancomycin 30
  Antibiotic resistance characteristics: MS (MS-moderately susceptible (6-10 mm))
Phytophthora sojae
  zone of inhibition: 0 mm
  mean inhibitory zone size: 0 mm
[3]; against GS1
  inhibition zone size: < 5 mm
[3]; against GS3 (so in the source)
  inhibition zone size: < 5 mm
Fusarium graminearum; pathogen isolate P31
  zone of inhibition: 3.05 mm
Fusarium graminearum; pathogen isolate P34
  zone of inhibition: 0 mm
Fusarium graminearum; pathogen target isolate P30
  mean inhibitory zone size: 0 mm
Fusarium graminearum; pathogen target isolate P31
  mean inhibitory zone size: 3.05 mm
Fusarium graminearum; pathogen target isolate P32
  mean inhibitory zone size: 0 mm
Fusarium graminearum; pathogen target isolate P33
  mean inhibitory zone size: 0 mm
Fusarium graminearum; pathogen target isolate P34
  mean inhibitory zone size: 0 mm
Fusarium graminearum; pathogen target isolate P35
  mean inhibitory zone size: 0 mm
Rhizoctonia solani
  zone of inhibition: 0 mm
Rhizoctonia solani; pathogen target isolate P5
  mean inhibitory zone size: 0 mm
Rhizoctonia solani; pathogen target isolate P6
  mean inhibitory zone size: 0 mm
Rhizoctonia solani; pathogen target isolate P12
  mean inhibitory zone size: 0 mm
Fusarium virguliforme; pathogen target isolate P20
  mean inhibitory zone size: 0 mm
Fusarium virguliforme; pathogen target isolate P21
  mean inhibitory zone size: 0 mm
Fusarium virguliforme; pathogen target isolate P22
  mean inhibitory zone size: 0 mm
Fusarium virguliforme; pathogen target isolate P23
  mean inhibitory zone size: 3.58 mm
Sclerotinia sclerotiorum
  zone of inhibition: 0 mm
Sclerotinia sclerotiorum; pathogen target isolate P17
  mean inhibitory zone size: 12.8 mm
Sclerotinia sclerotiorum; pathogen target isolate P18
  mean inhibitory zone size: 3.25 mm
Sclerotinia sclerotiorum; pathogen target isolate P19
  mean inhibitory zone size: 0 mm
